T/C data for ten compounds are collected here from PubChem BioAssay AID192 (DTP/NCI, 2004).

Where “and” joins values, the source holds several entries; their conditions need not be identical. Equal values may be shown once. Toxic doses and inconclusive results are not listed.

In the experiment the test system is BDF1 mice, B16 melanoma ip, median survival T/C. Put plainly: NCI In Vivo Anticancer Drug Screen. Data for tumor model B16 Melanoma (intraperitoneal) in B6D2F1 (BDF1) mice. Particulars: endpoint: median survival time, higher = longer survival. The gist of the method:
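Values are ratios of treated (T) to vehicle-control (C) measurements of survival or tumor size in tumor-bearing mice.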

Where [1] appears, read: dose: 25.0 mg/kg/injection, schedule: Q01DX009 (ip), vehicle: saline with Tween-80.
Setting [2] is: dose: 100.0 mg/kg/injection, schedule: Q01DX009 (ip), vehicle: Klucel (hydroxypropylcellulose) (HPC).
The mark [3] stands for this setting: dose: 100.0 mg/kg/injection, schedule: Q04DX003 (ip), vehicle: Klucel (hydroxypropylcellulose) (HPC).
Setting [4] is: dose: 200.0 mg/kg/injection, schedule: Q01DX009 (ip), vehicle: Klucel (hydroxypropylcellulose) (HPC).
The mark [5] stands for this setting: dose: 200.0 mg/kg/injection, schedule: Q04DX003 (ip), vehicle: Klucel (hydroxypropylcellulose) (HPC).
The mark [6] stands for this setting: dose: 400.0 mg/kg/injection, schedule: Q01DX009 (ip), vehicle: Klucel (hydroxypropylcellulose) (HPC).

In the case of `C[C@]12CC[C@H]3[C@@H](CC[C@]4(O)C[C@@H](O)CC[C@]34C=O)[C@@]1(O)CC[C@@H]2C1=CC(=O)OC1`, the T/C reads like this: (dose: 12.5 mg/kg/injection, schedule: Q01DX009 (ip), vehicle: saline with Tween-80) 104 % of control; under setting [1], 92 % of control; (dose: 50.0 mg/kg/injection, schedule: Q01DX009 (ip), vehicle: saline with Tween-80) 97 % of control; (dose: 100.0 mg/kg/injection, schedule: Q01DX009 (ip), vehicle: saline with Tween-80) 97 % of control; (dose: 200.0 mg/kg/injection, schedule: Q01DX009 (ip), vehicle: saline with Tween-80) 90 % of control.

Consider `Cc1ccc(NS(=O)(=O)c2ccc(F)cc2)cc1Cl`, for which the T/C under setting [2] is 90 % of control; the T/C under setting [3] was 103 % of control; the T/C under setting [4] was 100 % of control; the T/C under setting [5] is 100 % of control; the T/C under setting [6] was 86 % of control; the T/C (dose: 400.0 mg/kg/injection, schedule: Q04DX003 (ip), vehicle: Klucel (hydroxypropylcellulose) (HPC)) was 110 % of control.

As to `COc1cccc2c1C(=O)c1c(O)c3c(c(O)c1C2=O)CC(O)(C(=O)CO)CC3OC1CC(N)C(O)C(C)O1` (stereo unspecified), the T/C was 178 % of control (dose: 1.12 mg/kg/injection, schedule: Q01DX001 (ip), vehicle: water); 156 % of control and 212 % of control and 228 % of control (dose: 2.25 mg/kg/injection, schedule: Q01DX001 (ip), vehicle: water); 195 % of control (dose: 2.9 mg/kg/injection, schedule: Q01DX009 (ip), vehicle: saline); 178 % of control (dose: 4.2 mg/kg/injection, schedule: Q01DX001 (ip), vehicle: water); 152 % of control (dose: 4.32 mg/kg/injection, schedule: Q01DX004 (ip), vehicle: other); 161 % of control and 194 % of control and 273 % of control (dose: 4.5 mg/kg/injection, schedule: Q01DX001 (ip), vehicle: water). Besides, the T/C runs as follows: (dose: 6.9 mg/kg/injection, schedule: Q01DX001 (ip), vehicle: water) 183 % of control; (dose: 7.2 mg/kg/injection, schedule: Q01DX004 (ip), vehicle: other) 152 % of control; (dose: 9.0 mg/kg/injection, schedule: Q01DX001 (ip), vehicle: water) 203 % of control and 273 % of control and 277 % of control; (dose: 9.4 mg/kg/injection, schedule: Q01DX001 (ip), vehicle: water) 189 % of control; (dose: 10.0 mg/kg/injection, schedule: Q01DX009 (ip), vehicle: saline) 222 % of control and 298 % of control; (dose: 11.4 mg/kg/injection, schedule: Q04DX003 (ip), vehicle: saline) 182 % of control. Further, the T/C reads like this: (dose: 11.7 mg/kg/injection, schedule: Q01DX009 (ip), vehicle: saline) 267 % of control; (dose: 12.0 mg/kg/injection, schedule: Q01DX004 (ip), vehicle: other) 159 % of control; (dose: 15.0 mg/kg/injection, schedule: Q01DX001 (ip), vehicle: water) 108 % of control; (dose: 18.0 mg/kg/injection, schedule: Q01DX001 (ip), vehicle: water) 203 % of control and 250 % of control and 273 % of control; (dose: 18.75 mg/kg/injection, schedule: Q01DX001 (ip), vehicle: water) 235 % of control; (dose: 18.8 mg/kg/injection, schedule: Q01DX001 (ip), vehicle: water) 200 % of control. Further, the T/C reads like this: (dose: 19.2 mg/kg/injection, schedule: Q01DX001 (ip), vehicle: water) 209 % of control; (dose: 20.0 mg/kg/injection, schedule: Q01DX009 (ip), vehicle: saline) 289 % of control and 314 % of control; (dose: 22.8 mg/kg/injection, schedule: Q04DX003 (ip), vehicle: saline) 236 % of control; (dose: 23.4 mg/kg/injection, schedule: Q01DX009 (ip), vehicle: saline) 165 % of control and 200 % of control; (dose: 30.0 mg/kg/injection, schedule: Q01DX001 (ip), vehicle: water) 116 % of control; (dose: 32.0 mg/kg/injection, schedule: Q01DX001 (ip), vehicle: other) 164 % of control. For the same compound, the T/C is 203 % of control (dose: 36.0 mg/kg/injection, schedule: Q01DX001 (ip), vehicle: water); 226 % of control and 280 % of control (dose: 37.5 mg/kg/injection, schedule: Q01DX001 (ip), vehicle: water); 287 % of control (dose: 40.0 mg/kg/injection, schedule: Q01DX009 (ip), vehicle: saline); 150 % of control and 276 % of control (dose: 45.6 mg/kg/injection, schedule: Q04DX003 (ip), vehicle: saline); 172 % of control (dose: 46.8 mg/kg/injection, schedule: Q01DX009 (ip), vehicle: saline); 114 % of control (dose: 60.0 mg/kg/injection, schedule: Q01DX001 (ip), vehicle: water). In addition, the T/C is 277 % of control (dose: 72.0 mg/kg/injection, schedule: Q01DX001 (ip), vehicle: water); 314 % of control and 334 % of control (dose: 75.0 mg/kg/injection, schedule: Q01DX001 (ip), vehicle: water); 157 % of control and 276 % of control (dose: 91.2 mg/kg/injection, schedule: Q04DX003 (ip), vehicle: saline); 185 % of control and 315 % of control (dose: 150.0 mg/kg/injection, schedule: Q01DX001 (ip), vehicle: water).

As to `O=[N+]([O-])OCc1c(Cl)nc(Cl)c(Cl)c1Cl`, the T/C was 111 % of control (dose: 15.0 mg/kg/injection, schedule: Q01DX009 (ip), vehicle: Klucel (hydroxypropylcellulose) (HPC)); 108 % of control (dose: 30.0 mg/kg/injection, schedule: Q01DX009 (ip), vehicle: Klucel (hydroxypropylcellulose) (HPC)); 88 % of control (dose: 60.0 mg/kg/injection, schedule: Q01DX009 (ip), vehicle: Klucel (hydroxypropylcellulose) (HPC)).

With `CCOC(=O)Nc1cc(N)cc(NC(=O)OCC)c1`, the T/C (dose: 50.0 mg/kg/injection, schedule: Q04DX003 (ip), vehicle: Klucel (hydroxypropylcellulose) (HPC)) was 94 % of control; the T/C under setting [3] is 100 % of control; the T/C under setting [5] was 94 % of control.

With `CCC(=O)c1ccccc1NC(C)=O`, the T/C runs as follows: under setting [2], 102 % of control; under setting [4], 98 % of control; under setting [6], 97 % of control.

Regarding `Cc1nccc(=O)[nH]1`, the T/C runs as follows: (dose: 100.0 mg/kg/injection, schedule: Q01DX009 (ip), vehicle: saline) 90 % of control; (dose: 100.0 mg/kg/injection, schedule: Q04DX003 (ip), vehicle: saline) 117 % of control; (dose: 200.0 mg/kg/injection, schedule: Q01DX009 (ip), vehicle: saline) 107 % of control; (dose: 200.0 mg/kg/injection, schedule: Q04DX003 (ip), vehicle: saline) 100 % of control.

`Cc1ccc(C(=O)NC2C(=O)NC(C(C)C)C(=O)N3CCCC3C(=O)N(C)CC(=O)N(C)C(C(C)C)C(=O)OC2C)c2c1Oc1c(c(C(=O)NC3C(=O)NC(C(C)C)C(=O)N4CCCC4C(=O)N(C)CC(=O)N(C)C(C(C)C)C(=O)OC3C)c3nc(CF)c(=O)oc3c1C)N2` (stereo unspecified): the T/C is 154 % of control (dose: 0.13 mg/kg/injection, schedule: Q04DX003 (ip), vehicle: saline + alcohol); 164 % of control (dose: 0.25 mg/kg/injection, schedule: Q04DX003 (ip), vehicle: saline + alcohol); 112 % of control (dose: 31.25 micrograms/kg/injection, schedule: Q04DX003 (ip), vehicle: water); 180 % of control (dose: 125.0 micrograms/kg/injection, schedule: Q04DX003 (ip), vehicle: water); 170 % of control (dose: 250.0 micrograms/kg/injection, schedule: Q04DX003 (ip), vehicle: water); 175 % of control (dose: 500.0 micrograms/kg/injection, schedule: Q04DX003 (ip), vehicle: water).

As to `O=C1C(NCC(O)CO)=C(N2CC2)C(=O)C(NCC(O)CO)=C1N1CC1` (stereo unspecified), the T/C (dose: 1.0 mg/kg/injection, schedule: Q01DX009 (ip), vehicle: saline) is 95 % of control; the T/C (dose: 2.0 mg/kg/injection, schedule: Q01DX009 (ip), vehicle: saline) was 121 % of control; the T/C (dose: 4.0 mg/kg/injection, schedule: Q01DX009 (ip), vehicle: saline) was 123 % of control.

Turning to `CC(C)c1ccc(O)c(O)c1`, the T/C was 95 % of control (dose: 12.5 mg/kg/injection, schedule: Q01DX009 (ip), vehicle: saline); 104 % of control under setting [1]; 100 % of control (dose: 25.0 mg/kg/injection, schedule: Q01DX009 (ip), vehicle: saline); 96 % of control (dose: 50.0 mg/kg/injection, schedule: Q01DX009 (ip), vehicle: saline).
